PMC9834408, “The SPOC domain is a phosphoserine binding module that bridges transcription machinery with co- and post-transcriptional regulators” (Nature Communications, 2023)
“And” between values parts separate entries of the source, which are not always exact repeats. Equal values may be shown once. Read-outs that look alike come from different tables or passages of the source. Where a SMILES comes first, the peptide text is derived from it. [ ]: non-standard residue; d: D form. The star is where a group is joined. 5FAM = O=C1OC2(c3ccc(O)cc3Oc3cc(O)ccc32)c2ccc(C(=O)*)cc21; pS = N[C@@H](COP(=O)(O)O)C(=O)O

Columns and labels:
[1] = molecular target: T1, SHARP SPOC R3552A (Homo sapiens, UniProt Q96T58, R3552A); assay: Fluorescence anisotropy binding of labeled peptides to SHARP SPOC R3552A; settings: 90 nM labeled peptide, 25 mM Tris-Cl pH 7.4, 25 mM NaCl, 1 mM DTT, 20 °C, three independent experiments
T1 construct: SHARP SPOC (3496–3664 aa); His6 (N, cleaved yes); made in house; host or cells: E. coli Rosetta2 (DE3)
T1 sequence (Q96T58 3496-3664 R3552A): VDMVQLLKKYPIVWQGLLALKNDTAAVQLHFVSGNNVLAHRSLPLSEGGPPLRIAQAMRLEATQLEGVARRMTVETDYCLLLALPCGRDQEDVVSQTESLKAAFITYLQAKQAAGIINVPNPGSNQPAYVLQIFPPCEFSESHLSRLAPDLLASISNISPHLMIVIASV
From the text: (§1) For mammalian expression, human DIDO3, SHARP, and RBM15 were amplified from HEK293T cDNA and cloned into CMV10 N3XFLAG (Sigma) by Gibson assembly (NEB). These constructs were used for cloning ΔSPOC truncations using Gibson assembly (NEB). CMV10 N3XFLAG-PHF3 and PHF3 ΔSPOC constructs were generated previously. NLS-SPOC constructs were cloned into CMV10 N3XFLAG (Sigma) between NotI and XbaI. NLS sequence ([…]) was introduced to ensure nuclear localization of the isolated SPOC domains. […] His6-PHF3 SPOC was generated previously. Arginine mutations were introduced by site-directed mutagenesis according to the FastCloning protocol. Repair templates for CRISPR/Cas9 knock-in were cloned by Gibson assembly. Primer sequences are listed in Supplementary Table 4.
(§2) SPOC domains were expressed in E. coli Rosetta2 (DE3) cells (Novagen). ON cultures were diluted 1:50 in 2×TY, grown at 37 °C until OD600 = 0.8, and induced with 0.5 mM IPTG for 3 h at 30 °C. […]
(§3) Fluorescence anisotropy measurements were performed on a Perkin Elmer LS50 B fluorescence spectrometer operated by Perkin Elmar FL WinLab software (version 3.00). […] The grating factor was determined using unconjugated Atto-488 dye. […]

[2] = molecular target: T2, RBM15 SPOC (Homo sapiens, UniProt Q96T37); assay: Fluorescence anisotropy binding of labeled peptides to RBM15 SPOC WT; settings: 90 nM labeled peptide, 25 mM Tris-Cl pH 7.4, 25 mM NaCl, 1 mM DTT, 20 °C, three independent experiments
T2 construct: RBM15 SPOC (775–960 aa); His6 (N, cleaved yes); made in house; host or cells: E. coli Rosetta2 (DE3)
T2 sequence (Q96T37 775-960): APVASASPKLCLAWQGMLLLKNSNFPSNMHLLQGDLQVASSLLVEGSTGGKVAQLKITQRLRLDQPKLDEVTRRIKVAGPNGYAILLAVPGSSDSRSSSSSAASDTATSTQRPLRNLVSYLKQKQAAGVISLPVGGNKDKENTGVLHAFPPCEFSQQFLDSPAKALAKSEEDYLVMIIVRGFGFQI
From the text: as §1
(§4) SPOC domains were expressed in E. coli Rosetta2 (DE3) cells (Novagen). ON cultures were diluted 1:50 in 2×TY, grown at 37 °C until OD600 = 0.8, and induced with 0.5 mM IPTG for 3 h at 30 °C. […] Elution with 25 mM Tris-Cl pH 7.4, 500 mM NaCl, and 500 mM Imidazole was followed by TEV cleavage of the His6-tag and size exclusion chromatography using Sephacryl S-200 HR 16/600 or 26/600 (Cytiva) equilibrated in 25 mM Tris-Cl pH 7.4, 25 mM NaCl, 1 mM DTT.
(§5) One molar equivalent of Atto-488 NHS ester (Atto-tec) and five equivalents of DIPEA (Sigma-Aldrich) was added to three equivalents of the peptide. Reactions were incubated ON at room temperature (RT) and protected from light. Labeled peptides were purified by reverse-phase HPLC over a C18 column (Agilent Technologies) using a gradient from 30 to 70% Methanol (Merck). Purified peptides were lyophilized and stored at −20 °C.
(§6) Fluorescence anisotropy measurements were performed on a Perkin Elmer LS50 B fluorescence spectrometer operated by Perkin Elmar FL WinLab software (version 3.00). The excitation wavelength was set to 500 nm (excitation slit 10 nm), the emission wavelength to 518 nm (emission slit 6 nm), and the integration time to 1 s. Measurements were conducted at 20 °C in 25 mM Tris-Cl pH 7.4, 25 mM NaCl, and 1 mM DTT. The grating factor was determined using unconjugated Atto-488 dye. […]

[3] = molecular target: T3, PHF3 SPOC (Homo sapiens, UniProt Q92576); assay: Fluorescence anisotropy binding of labeled peptides to PHF3 SPOC WT
T3 construct: His6-PHF3 SPOC was generated previously; His6 (N, cleaved yes); made in house; host or cells: E. coli Rosetta2 (DE3)
T3 sequence (Q92576 1199-1356 limits assumed): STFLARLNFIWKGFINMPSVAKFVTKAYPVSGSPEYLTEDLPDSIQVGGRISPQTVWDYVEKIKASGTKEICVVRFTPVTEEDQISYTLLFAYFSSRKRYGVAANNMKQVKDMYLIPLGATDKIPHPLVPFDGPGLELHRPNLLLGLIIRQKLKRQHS
Protocol: as §4, §5, §6

[4] = molecular target: T4, PHF3 SPOC R1248A (Homo sapiens, UniProt Q92576, R1248A); assay: Fluorescence anisotropy binding of labeled peptides to PHF3 SPOC R1248A; settings: 90 nM labeled peptide, 25 mM Tris-Cl pH 7.4, 25 mM NaCl, 1 mM DTT, 20 °C, three independent experiments
T4 construct: His6-PHF3 SPOC was generated previously; His6 (N, cleaved yes); made in house; host or cells: E. coli Rosetta2 (DE3)
T4 sequence (Q92576 1199-1356 R1248A limits assumed): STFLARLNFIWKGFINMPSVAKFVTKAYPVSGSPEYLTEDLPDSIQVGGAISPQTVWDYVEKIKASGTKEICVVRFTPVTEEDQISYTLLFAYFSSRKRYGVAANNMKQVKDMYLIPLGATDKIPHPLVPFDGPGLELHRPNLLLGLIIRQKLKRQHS
From the text: as §1, §2, §3

[5] = molecular target: T5, DIDO SPOC (Homo sapiens, UniProt Q9BTC0); assay: Fluorescence anisotropy binding of labeled peptides to DIDO SPOC WT; settings: 90 nM labeled peptide, 25 mM Tris-Cl pH 7.4, 25 mM NaCl, 1 mM DTT, 20 °C, three independent experiments
T5 construct: human DIDO3 SPOC (1047–1205 aa); His6 (N, cleaved yes); made in house; host or cells: E. coli Rosetta2 (DE3)
T5 sequence (Q9BTC0 1047-1205): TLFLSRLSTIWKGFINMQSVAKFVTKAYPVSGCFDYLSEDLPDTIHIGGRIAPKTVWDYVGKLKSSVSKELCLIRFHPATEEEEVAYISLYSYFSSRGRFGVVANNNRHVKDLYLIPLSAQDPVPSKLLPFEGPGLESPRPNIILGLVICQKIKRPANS
From the text: as §1, §2, §3

[6] = molecular target: T6, DIDO SPOC R1096A (Homo sapiens, UniProt Q9BTC0, R1096A); assay: Fluorescence anisotropy binding of labeled peptides to DIDO SPOC R1096A; settings: 90 nM labeled peptide, 25 mM Tris-Cl pH 7.4, 25 mM NaCl, 1 mM DTT, 20 °C, three independent experiments
T6 construct: human DIDO3 SPOC (1047–1205 aa); His6 (N, cleaved yes); made in house; host or cells: E. coli Rosetta2 (DE3)
T6 sequence (Q9BTC0 1047-1205 R1096A): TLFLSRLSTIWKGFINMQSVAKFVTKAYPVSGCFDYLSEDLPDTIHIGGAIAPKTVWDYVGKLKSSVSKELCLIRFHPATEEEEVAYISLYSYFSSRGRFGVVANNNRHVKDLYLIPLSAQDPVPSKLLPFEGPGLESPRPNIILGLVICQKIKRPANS
From the text: as §1, §2, §3

[7] = molecular target: T7, SHARP SPOC (Homo sapiens, UniProt Q96T58); assay: Fluorescence anisotropy binding of labeled peptides to SHARP SPOC WT; settings: 90 nM labeled peptide, 25 mM Tris-Cl pH 7.4, 25 mM NaCl, 1 mM DTT, 20 °C, three independent experiments
T7 construct: SHARP SPOC (3496–3664 aa); His6 (N, cleaved yes); made in house; host or cells: E. coli Rosetta2 (DE3)
T7 sequence (Q96T58 3496-3664): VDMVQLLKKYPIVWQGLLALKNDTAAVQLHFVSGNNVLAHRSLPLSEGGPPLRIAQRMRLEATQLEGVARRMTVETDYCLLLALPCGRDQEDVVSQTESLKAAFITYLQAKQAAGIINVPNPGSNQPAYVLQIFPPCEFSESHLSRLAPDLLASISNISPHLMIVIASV

CC(C)C[C@H](NC(=O)[C@H](CC(C)C)NC(=O)[C@@H]1CCCN1C(=O)[C@H](C)NC(=O)[C@@H]1CCCN1C(=O)[C@H](CCC(=O)O)NC(=O)[C@H](CCCNC(=N)N)NC(=O)c1ccc2c(c1)C(=O)OC21c2ccc(O)cc2Oc2cc(O)ccc21)C(=O)N[C@@H](CO)C(=O)N[C@@H](C)C(=O)N[C@@H](CCC(N)=O)C(=O)N[C@@H](Cc1ccc(O)cc1)C(=O)N[C@@H](CCC(=O)O)C(=O)N[C@H](C(=O)N[C@@H](CC(C)C)C(=O)N[C@@H](COP(=O)(O)O)C(=O)N[C@@H](CC(=O)O)C(=O)N[C@@H](CO)C(=O)N[C@@H](CC(=O)O)C(=O)N[C@@H](CC(=O)O)C(=O)O)[C@@H](C)O [NCoR pS2436] (5FAM-REPAPLLSAQYETL[pS]DSDD-OH)
Kd [1]: 23.3 ± 0.5 µM

CSCC[C@H](NC(=O)c1ccc2c(c1)C(=O)OC21c2ccc(O)cc2Oc2cc(O)ccc21)C(=O)N[C@H](C(=O)N[C@@H](CC(N)=O)C(=O)N[C@@H](CCC(=O)O)C(=O)N[C@@H](CCC(=O)O)C(=O)N1CCC[C@H]1C(=O)N[C@@H](CC(C)C)C(=O)N1CCC[C@H]1C(=O)N[C@@H](CCCCN)C(=O)N[C@@H](CCCCN)C(=O)N[C@H](C(=O)N[C@@H](CCCNC(=N)N)C(=O)N[C@@H](CC(C)C)C(=O)N[C@@H](COP(=O)(O)O)C(=O)N[C@@H](CCC(=O)O)C(=O)N[C@H](C(=O)N[C@@H](CC(=O)O)C(=O)N[C@@H](Cc1ccccc1)C(=O)N[C@@H](CCCCN)C(=O)O)[C@@H](C)O)C(C)C)[C@@H](C)O [WTAP pS14] (5FAM-MTNEEPLPKKVRL[pS]ETDFK-OH)
Kd ([2]; read-out: Kd): 21.5 ± 1.5 µM

CC(C)C[C@H](NC(=O)[C@H](CC(C)C)NC(=O)[C@@H]1CCCN1C(=O)[C@H](C)NC(=O)[C@@H]1CCCN1C(=O)[C@H](CCC(=O)O)NC(=O)[C@H](CCCNC(=N)N)NC(=O)c1ccc2c(c1)C(=O)OC21c2ccc(O)cc2Oc2cc(O)ccc21)C(=O)N[C@@H](CO)C(=O)N[C@@H](C)C(=O)N[C@@H](CCC(N)=O)C(=O)N[C@@H](Cc1ccc(O)cc1)C(=O)N[C@@H](CCC(=O)O)C(=O)N[C@H](C(=O)N[C@@H](CC(C)C)C(=O)N[C@@H](CO)C(=O)N[C@@H](CC(=O)O)C(=O)N[C@@H](CO)C(=O)N[C@@H](CC(=O)O)C(=O)N[C@@H](CC(=O)O)C(=O)O)[C@@H](C)O [NCoR] (5FAM-REPAPLLSAQYETLSDSDD-OH)
Kd [1]: 262 ± 74.2 µM

C[C@@H](O)[C@H](NC(=O)[C@@H]1CCCN1C(=O)[C@H](COP(=O)(O)O)NC(=O)[C@H](Cc1ccc(O)cc1)NC(=O)[C@H](CO)NC(=O)[C@@H]1CCCN1C(=O)[C@H](CO)NC(=O)[C@@H](NC(=O)[C@@H]1CCCN1C(=O)[C@H](COP(=O)(O)O)NC(=O)[C@H](Cc1ccc(O)cc1)NC(=O)[C@H](CO)NC(=O)[C@@H]1CCCN1)[C@@H](C)O)C(=O)N[C@@H](CO)C(=O)N1CCC[C@H]1C(=O)N[C@@H](CO)C(=O)O [2xS2P]
Kd ([3]; PHF3 SPOC WT, fluorescence anisotropy, 90 nM labeled peptide titrated with SPOC domain, 25 mM Tris-Cl pH 7.4, 25 mM NaCl, 1 mM DTT, 20 °C, three independent experiments, read-out: Kd): 0.42 ± 0.02 µM
Kd [4]: 8.4 ± 0.3 µM
Kd [5]: 4.8 ± 0.6 µM
Kd [6]: 22.4 ± 2.1 µM

C[C@@H](O)[C@H](NC(=O)[C@@H]1CCCN1C(=O)[C@H](CO)NC(=O)[C@H](Cc1ccc(O)cc1)NC(=O)[C@H](CO)NC(=O)[C@@H]1CCCN1C(=O)[C@H](COP(=O)(O)O)NC(=O)[C@@H](NC(=O)[C@@H]1CCCN1C(=O)[C@H](CO)NC(=O)[C@H](Cc1ccc(O)cc1)NC(=O)[C@H](CO)NC(=O)[C@@H]1CCCN1)[C@@H](C)O)C(=O)N[C@@H](COP(=O)(O)O)C(=O)N1CCC[C@H]1C(=O)N[C@@H](CO)C(=O)O [2xS5P]
Kd [7]: 20.6 ± 0.1 µM
Kd ([2]; read-out: Kd): 11.8 µM and 29.6 µM

C[C@@H](O)[C@H](NC(=O)[C@@H]1CCCN1C(=O)[C@H](CO)NC(=O)[C@H](Cc1ccc(O)cc1)NC(=O)[C@H](CO)NC(=O)[C@@H]1CCCN1C(=O)[C@H](CO)NC(=O)[C@@H](NC(=O)[C@@H]1CCCN1C(=O)[C@H](COP(=O)(O)O)NC(=O)[C@H](Cc1ccc(O)cc1)NC(=O)[C@H](CO)NC(=O)[C@@H]1CCCN1)[C@@H](C)O)C(=O)N[C@@H](CO)C(=O)N1CCC[C@H]1C(=O)N[C@@H](CO)C(=O)O [1xS2P]
Kd [3]: 103 ± 4 µM

C[C@@H](O)[C@H](NC(=O)[C@@H]1CCCN1C(=O)[C@H](CO)NC(=O)[C@H](Cc1ccc(O)cc1)NC(=O)[C@H](COP(=O)(O)O)NC(=O)[C@@H]1CCCN1C(=O)[C@H](CO)NC(=O)[C@@H](NC(=O)[C@@H]1CCCN1C(=O)[C@H](CO)NC(=O)[C@H](Cc1ccc(O)cc1)NC(=O)[C@H](CO)NC(=O)[C@@H]1CCCN1)[C@@H](C)O)C(=O)N[C@@H](CO)C(=O)N1CCC[C@H]1C(=O)N[C@@H](COP(=O)(O)O)C(=O)O [2xS7P]
Kd ([2]; Kd): 23.5 ± 0.4 µM
